Values of other authors as cited in patent US20260232672A1, “COMPOSITIONS AND METHODS OF TREATING FEMALE SEXUAL DYSFUNCTION AND FEMALE SEXUAL AROUSAL DISORDER” (Daré Bioscience, Inc., priority 2023, published 2026).

System: pre- and postmenopausal women afflicted with broad-spectrum FSD
Conditions: oral

For CCCc1nn(C)c2c(=O)[nH]c(-c3cc(S(=O)(=O)N4CCN(C)CC4)ccc3OCC)nc12.O=C(O)CC(O)(CC(=O)O)C(=O)O [oral sildenafil citrate, 1-[4-ethoxy-3-(6,7-dihydro-1-methyl-7-oxo-3-propyl-1H-pyrazolo[4,3-d]pyrimidin-5-yl)phenylsulfonyl]-4-methylpiperazine citrate salt], the “rates of side effects” value (doses 25 mg-100 mg, previous clinical trials in women) is listed as “high rates of side effects” and the efficacy versus placebo (published placebo-controlled trials) is listed as “marginal efficacy versus placebo”.
